In patent US8263606B2 (Xenon Pharmaceuticals Inc., priority 2008, dated 2012) one finds melting point, IC50 and inhibition data, which are given here for 28 compounds.

pIC50: −log10 of the molar value. Some results are limits rather than exact numbers.

The term melting point denotes the temperature of the solid-liquid transition. The term pIC50 denotes the negative decadic logarithm of the IC50, by convention in mol/L. As a reminder, the inhibition is the drop in the measured response relative to a control, in per cent.

One series relates to sodium channel. In words: Guanidine influx assay (14C-guanidine radiotracer flux, in vitro). Particulars: guanidine influx assay using a known cell line that expresses a sodium channel; activity level class. Format: cell-based, human or rat. A digest of the protocol:
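Cells stably expressing human or rat sodium channels (~100,000/well, 20–24 h) were exposed in low-sodium choline buffer to test agent plus aconitine activator and 14C-guanidine at ambient temperature. Intracellular 14C-guanidine was counted by scintillation; IC50 fitted by 4-parameter logistic over half-dilutions around 1 μM.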

For a further series, the target named is CYP3A4 (Homo sapiens, UniProt P08684). The series can be described thus: Cytochrome P450 (CYP450) Inhibition Assay, CYP3A4 (Vivid fluorescence, BOMCC substrate). As to conditions: human, P450 Baculosomes (recombinant CYP3A4), probe BOMCC (Vivid substrate).
Chain of CYP3A4 (P08684 whole entry): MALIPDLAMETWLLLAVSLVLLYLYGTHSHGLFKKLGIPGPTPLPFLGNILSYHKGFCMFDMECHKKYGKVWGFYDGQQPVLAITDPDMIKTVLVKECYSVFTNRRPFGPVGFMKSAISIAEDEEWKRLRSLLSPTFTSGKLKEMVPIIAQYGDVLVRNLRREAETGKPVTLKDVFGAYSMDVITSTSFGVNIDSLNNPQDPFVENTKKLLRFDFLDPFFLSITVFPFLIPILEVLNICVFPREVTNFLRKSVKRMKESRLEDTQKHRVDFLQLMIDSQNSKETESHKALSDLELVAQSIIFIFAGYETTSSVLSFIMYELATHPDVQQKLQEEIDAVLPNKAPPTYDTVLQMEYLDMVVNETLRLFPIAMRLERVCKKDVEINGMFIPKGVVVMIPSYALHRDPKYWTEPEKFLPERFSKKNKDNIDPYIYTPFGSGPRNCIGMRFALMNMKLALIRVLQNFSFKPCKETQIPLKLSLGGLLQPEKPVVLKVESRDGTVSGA

With `COc1ccc(CN2C(=O)C3(COc4cc(F)c(C#N)cc43)c3ccccc32)cc1` (stereo not drawn) [Example 2.40, 6-fluoro-1′-(4-methoxybenzyl)-2′-oxo-1′,2′-dihydrospiro[1-benzofuran-3,3′-indole]-5-carbonitrile], the melting point lay in the range of 142 to 143 °C. Further, the pIC50 in the series on sodium channel was 5.00 to 6.00. Besides, the inhibition at 10 µM on CYP3A4 is above 50%.

Compound `COc1ccc(CN2C(=O)C3(COc4cc5c(C)noc5cc43)c3ccccc32)cc1` (stereo not drawn) [Example 2.41, 1′-(4-methoxybenzyl)-3-methylspiro[furo[2,3-f][1,2]benzisoxazole-7,3′-indol]-2′(1′H)-one] gave a melting point of 183 to 184 °C. The negative-log IC50 (pIC50) with sodium channel is 5.00 to 6.00. In addition, at CYP3A4, the inhibition at 10 µM was above 50%.

In turn, `O=C1N(c2ccc(F)cc2)c2ccccc2C12COc1cc3c(cc12)OCCO3` (stereo not drawn) [Example 2.45, 1′-(4-fluorophenyl)-2,3-dihydrospiro[furo[2,3-g][1,4]benzodioxine-8,3′-indol]-2′(1′H)-one] yielded a melting point of 210 to 212 °C. The negative logarithm of the IC50 (pIC50) in the series on sodium channel was 7.00 to 9.00. Further, on CYP3A4, the inhibition at 10 µM was below 50%.

With `O=C1N(Cc2ccccn2)c2ccc(Br)cc2C12COc1cc3c(cc12)OCCO3` (stereo not drawn) [Example 2.49, 5′-bromo-1′-(pyridin-2-ylmethyl)-2,3-dihydrospiro[furo[2,3-g][1,4]-benzodioxine-8,3′-indol]-2′(1′H)-one], the melting point was above 250 °C. Further, the pIC50 with sodium channel was 7.00 to 9.00. For the same compound, on CYP3A4, the inhibition at 10 µM was above 50%.

The compound `N#Cc1ccc2c(c1)C1(COc3cc4c(cc31)OCCO4)C(=O)N2Cc1ccccn1` (stereo not drawn) [Example 2.50, 2′-oxo-1′-(pyridin-2-ylmethyl)-1′,2,2′,3-tetrahydrospiro[furo[2,3-g][1,4]benzodioxine-8,3′-indole]-5′-carbonitrile] gave a melting point of 198 to 199 °C. In addition, the pIC50 in the series with sodium channel was 7.00 to 9.00. For the same compound, at CYP3A4, the inhibition at 10 µM was below 50%.

Consider `O=C1N(C(c2ccccc2)c2ccccc2)c2ccccc2C12COc1cc(F)c(F)cc12` (stereo not drawn) [Example 2.61, 1′-(diphenylmethyl)-5,6-difluorospiro[1-benzofuran-3,3′-indol]-2′(1′H)-one], for which the melting point is 213 to 216 °C. Moreover, the negative logarithm of the IC50 (pIC50) in the series on sodium channel was at most 5.00. Further, the inhibition at 10 µM on CYP3A4 is below 50%.

In turn, `COc1ccc2c(c1OC)C1(COc3cc4c(cc31)OCCO4)C(=O)N2Cc1ccc(C(F)(F)F)o1` (stereo not drawn) [Example 2.63, 4′,5′-dimethoxy-1′-{[5-(trifluoromethyl)furan-2-yl]methyl}-2,3-dihydrospiro[furo[2,3-g][1,4]benzodioxine-8,3′-indol]-2′(1′H)-one] came in with a melting point of 62 to 65 °C. The negative-log IC50 (pIC50) with sodium channel is 6.00 to 7.00. Further, the inhibition at 10 µM at CYP3A4 is above 50%.

`COCCOCCN1C(=O)C2(COc3cc4c(cc32)OCCO4)c2c(OC)ccc(OC)c21` (stereo not drawn) [Example 2.64, 4′,7′-dimethoxy-1′-[2-(2-methoxyethoxy)ethyl]-2,3-dihydrospiro[furo[2,3-g][1,4]benzodioxine-8,3′-indol]-2′(1′H)-one] yielded a melting point of 109 to 110 °C. For the same compound, the pIC50 in the series on sodium channel was 6.00 to 7.00. For the same compound, at CYP3A4, the inhibition at 10 µM is below 50%.

For `O=C1Nc2cccc(Cl)c2C12COc1cc3c(cc12)CCO3` (stereo not drawn) [Example 3.1, 4′-chloro-5,6-dihydrospiro[benzo[1,2-b:5,4-b′]difuran-3,3′-indol]-2′(1′H)-one], the melting point is above 200 °C. Also, the negative logarithm of the IC50 (pIC50) in the series on sodium channel was 7.00 to 9.00. Also, at CYP3A4, the inhibition at 10 µM is above 50%.

`Cc1cc2c(cc1C)C1(CO2)C(=O)Nc2ccccc21` (stereo not drawn) [Example 3.3, 5,6-dimethylspiro[1-benzofuran-3,3′-indol]-2′(1′H)-one] showed a melting point of 206 to 207 °C. For the same compound, the negative logarithm of the IC50 (pIC50) in the series with sodium channel is 6.00 to 7.00. The inhibition at 10 µM on CYP3A4 is above 50%.

Consider `O=C1Nc2ccc(F)cc2C12COc1cc3c(cc12)CCO3` (stereo not drawn) [Example 3.4, 5′-fluoro-5,6-dihydrospiro[benzo[1,2-b:5,4-b′]difuran-3,3′-indol]-2′(1′H)-one], for which the melting point lay within 257 to 259 °C. The negative logarithm of the IC50 (pIC50) with sodium channel is 5.00 to 6.00. Moreover, the inhibition at 10 µM at CYP3A4 is above 50%.

For the compound `O=C1Nc2cc(F)ccc2C12COc1cc3c(cc12)CCO3` (stereo not drawn) [Example 3.5, 6′-fluoro-5,6-dihydrospiro[benzo[1,2-b:5,4-b′]difuran-3,3′-indol]-2′(1′H)-one], the melting point fell in the range of 249 to 251 °C. Besides, in the series with sodium channel, the pIC50 is 5.00 to 6.00. Besides, the inhibition at 10 µM at CYP3A4 was above 50%.

Take `Cc1noc2cc3c(cc12)C1(CO3)C(=O)Nc2ccccc21` (stereo not drawn) [Example 3.6, 3-methylspiro[furo[3,2-f][1,2]benzisoxazole-5,3′-indol]-2′(1′H)-one]: the melting point fell in the range of 226 to 227 °C. The pIC50 with sodium channel is 6.00 to 7.00. In addition, the inhibition at 10 µM at CYP3A4 was below 50%.

Turning to `COc1cc2c(cc1F)C1(CO2)C(=O)Nc2ccccc21` (stereo not drawn) [Example 3.7, 5-fluoro-6-methoxyspiro[1-benzofuran-3,3′-indol]-2′(1′H)-one], the melting point was 222 to 225 °C. In addition, the pIC50 in the series on sodium channel was 5.00 to 6.00. The inhibition at 10 µM at CYP3A4 is below 50%.

Consider `O=C1Nc2ccccc2C12COc1cc3c(cc12)OCCO3` (stereo not drawn) [Example 3.10, 2,3-dihydrospiro[furo[2,3-g][1,4]benzodioxine-8,3′-indol]-2′(1′H)-one], for which the melting point was above 250 °C. Also, the negative-log IC50 (pIC50) in the series with sodium channel is 7.00 to 9.00. For the same compound, the inhibition at 10 µM at CYP3A4 is below 50%.

Turning to `O=C1Nc2ccccc2C12COc1cc3c(cc12)OCCCO3` (stereo not drawn) [Example 3.11, 3,4-dihydro-2H-spiro[furo[2,3-h][1,5]benzodioxepine-9,3′-indol]-2′(1′H)-one], the melting point lay in the range of 235 to 236 °C. Moreover, the pIC50 in the series on sodium channel is 5.00 to 6.00. On CYP3A4, the inhibition at 10 µM is below 50%.

Compound `Cc1nc2cc3c(cc2o1)C1(CO3)C(=O)Nc2ccccc21` (stereo not drawn) [Example 3.12, 2-methylspiro[furo[2,3-f][1,3]benzoxazole-7,3′-indol]-2′(1′H)-one] returned a melting point of 242 to 244 °C. Also, in the series with sodium channel, the pIC50 was at most 5.00. Moreover, on CYP3A4, the inhibition at 10 µM is below 50%.

As to `Cn1c(=O)oc2cc3c(cc21)OCC31C(=O)Nc2ccccc21` (stereo not drawn) [Example 3.13, 3-methylspiro[furo[2,3-f][1,3]benzoxazole-7,3′-indole]-2,2′(1′H,3H)-dione], the melting point is above 250 °C. Also, in the series on sodium channel, the pIC50 was 5.00 to 6.00. The inhibition at 10 µM on CYP3A4 is below 50%.

`Cn1c(=O)oc2cc3c(cc21)C1(CO3)C(=O)Nc2ccccc21` (stereo not drawn) [Example 3.14, 1-methylspiro[furo[3,2-f][1,3]benzoxazole-7,3′-indole]-2,2′(1′H,1′H)-dione] showed a melting point above 250 °C. For the same compound, the pIC50 in the series with sodium channel was 5.00 to 6.00. The inhibition at 10 µM at CYP3A4 was below 50%.

`O=C1Nc2c(Cl)cccc2C12COc1cc3c(cc12)CCO3` (stereo not drawn) [Example 3.15, 7′-chloro-5,6-dihydrospiro[benzo[1,2-b:5,4-b′]difuran-3,3′-indol]-2′(1′H)-one] came in with a melting point above 250 °C. The negative-log IC50 (pIC50) with sodium channel is 6.00 to 7.00. Further, on CYP3A4, the inhibition at 10 µM was below 50%.

`O=C1Nc2c(F)cccc2C12COc1cc3c(cc12)CCO3` (stereo not drawn) [Example 3.16, 7′-fluoro-5,6-dihydrospiro[benzo[1,2-b:5,4-b′]difuran-3,3′-indol]-2′(1′H)-one] displayed a melting point above 250 °C. Also, in the series with sodium channel, the pIC50 was 6.00 to 7.00. Besides, the inhibition at 10 µM on CYP3A4 was below 50%.

In turn, `Cc1ccc(F)c2c1NC(=O)C21COc2cc3c(cc21)CCO3` (stereo not drawn) [Example 3.17, 4′-fluoro-7′-methyl-5,6-dihydrospiro[benzo[1,2-b:5,4-b′]difuran-3,3′-indol]-2′(1′H)-one] returned a melting point above 250 °C. Besides, in the series with sodium channel, the negative logarithm of the IC50 (pIC50) is 6.00 to 7.00. The inhibition at 10 µM on CYP3A4 is above 50%.

`O=C1Nc2ccccc2C12COc1cc3c(cc12)CCCO3` (stereo not drawn) [Example 3.21, 6,7-dihydro-5H-spiro[furo[3,2-g]chromene-3,3′-indol]-2′(1′H)-one]: the melting point was 216 to 220 °C. Further, the pIC50 with sodium channel is 6.00 to 7.00. For the same compound, the inhibition at 10 µM at CYP3A4 is below 50%.

`CN1C(=O)COc2cc3c(cc21)C1(CO3)C(=O)Nc2ccccc21` (stereo not drawn) [Example 3.22, 1-methyl-1H-spiro[furo[3,2-g][1,4]benzoxazine-8,3′-indole]-2,2′(1′H,3H)-dione] returned a melting point above 250 °C. Also, the negative logarithm of the IC50 (pIC50) in the series with sodium channel was 5.00 to 6.00. Also, at CYP3A4, the inhibition at 10 µM is below 50%.

On to `CN1C(=O)COc2cc3c(cc21)OCC31C(=O)Nc2ccccc21` (stereo not drawn) [Example 3.23, 4-methyl-4,7-dihydrospiro[benzofuro[5,6-b][1,4]oxazine-8,3′-indoline]-2′,3(2H)-dione], for which the melting point is above 250 °C. Further, the negative logarithm of the IC50 (pIC50) in the series with sodium channel is 5.00 to 6.00. For the same compound, the inhibition at 10 µM on CYP3A4 was below 50%.

`COc1cc2c(cc1C)[C@@]1(CO2)C(=O)Nc2ccccc21` [Example 3.25, (3S)-6-methoxy-5-methylspiro[1-benzofuran-3,3′-indol]-2′(1′H)-one] returned a melting point above 250 °C. In addition, the negative-log IC50 (pIC50) in the series with sodium channel is 5.00 to 6.00. Further, the inhibition at 10 µM on CYP3A4 was below 50%.

Regarding `COc1cc2c(cc1C)[C@]1(CO2)C(=O)Nc2ccccc21` [Example 3.26, (3R)-6-methoxy-5-methylspiro[1-benzofuran-3,3′-indol]-2′(1′H)-one], the melting point was above 250 °C. Also, the pIC50 with sodium channel is 5.00 to 6.00. The inhibition at 10 µM at CYP3A4 was above 50%.

The compound `O=C1Nc2cc3c(cc2C12COc1cc4c(cc12)CCO4)OCCO3` (stereo not drawn) [Example 3.28, 2′,3′,5,6-tetrahydrospiro[benzo[1,2-b:5,4-b′]difuran-3,8′-[1,4]dioxino[2,3-f]indol]-7′(6′H)-one] showed a melting point above 250 °C. The pIC50 in the series on sodium channel is 5.00 to 6.00. In addition, the inhibition at 10 µM on CYP3A4 is above 50%.
